Key:
[1] = tested on: immortalized megakaryocyte cell line; assay: Test Example 2: platelet production, shake culturing, with various aryl hydrocarbon receptor antagonists
[2] = tested on: immortalized megakaryocyte cell line; assay: Test Example 1: platelet production, shake culturing; type: cell-based; conditions: for fold induction at 10 µM: Platelet, 144 h, read-out: Amount of platelet production (vs. Control); for Amount of platelet production (vs. Control): aryl hydrocarbon receptor antagonist Compound A5 0.1 μM added at cell seeding, counted after 6 days
Description: The immortalized megakaryocyte cell line obtained according to the method described in WO 2016/204256 was washed twice with D-PBS(−) and then cultured in medium not containing doxycycline to terminate forced expression (cultured under conditions where gene expression is OFF). Shake culturing at 100 rpm was performed in the following medium after the cells were seeded in a 125-mL polycarbonate Erlenmeyer flask (Corning #431143) at 25 mL/flask and a seeding density of 1×10^5 cells/mL. Culturing conditions were 37° C. and 5% CO2. The medium was obtained by adding the following components to IMDM serving as the basal medium (concentrations indicate final concentrations). • FBS 15% • L-Glutamine 2 mM • ITS 100-fold dilution • MTG 450 μM • Ascorbic acid 50 μg/mL • SCF 50 ng/mL • TA-316 0.1 μg/mL • ADAM inhibitor 15 μM • ROCK inhibitor 0.5 μM […] After culturing for 6 days in total, the number of platelets was measured. The measurement method was as follows. The same operation was performed for control. At 6 days after initiation of the culturing under conditions where gene expression was OFF, a part of the culture supernatant was collected, and suspended with the following antibody and Flow-Count Fluorospheres (Beckman Coulter #7547053) to perform staining. • APC-labeled anti-CD41 antibody (BioLegend #303710) • eFluor 450-labeled anti-CD42a antibody (eBioscience #48-0428-42) • PE-labeled anti-CD42b antibody (BioLegend #303906) At 30 minutes after staining, number of platelets (CD41, CD42a and CD42b-positive cells) was counted by using FACSVerse (manufactured by BD Japan) with Flow-Count Fluorospheres. The number of platelets was given as a percentage of the control.

[3] = Platelet, 144 h, read-out: Amount of platelet production (vs. Control)
[4] = DMSO added at cell seeding (no AhR antagonist), compound 10 μM added at Day 3, platelets (CD41, CD42a, CD42b-positive) counted after 6 days

Row | Compound | Amount of platelet production (vs. Control) ([2]; compound 10 μM added at Day 3) | fold induction at 10 µM [2, 4] | further results
1 | CC(C)n1cnc2c(NCCc3ccc(O)cc3)nc(-c3csc4ccccc34)nc21 [Compound A1, 4-[2-[[2-benzo[b]thien-3-yl-9-(1-methylethyl)-9H-purin-6-yl]amino]ethyl]phenol, reference compound] |  |  | fold induction at 0.75 µM [1, 3]: 1.5 to 6.5
2 | Cc1cc(-c2ccc(CC(=O)Nc3ccc(-c4cccnc4)cc3)cc2)ccn1 [Compound A3, 4-(2-Methyl-4-pyridinyl)-N-[4-(3-pyridinyl)phenyl]-benzeneacetamide, reference compound] |  |  | fold induction at 10 µM [1, 3]: 1.5 to 6.5
3 | Cc1ccccc1/N=N/c1ccc(NC(=O)c2ccnn2C)c(C)c1 [Compound A4, 1-Methyl-N-[2-methyl-4-[2-(2-methylphenyl)diazenyl]phenyl]-1H-pyrazole-5-carboxamide, reference compound] |  |  | fold induction at 1 µM [1, 3]: 1.5 to 6.5
4 | CC1(C)COc2nc3c(NCCc4ccc(O)c(-c5cccc(C#N)c5)c4)nc(-c4cncc(F)c4)nc3n21 [Compound A5, 3-[5-[2-[[2-(5-Fluoropyridin-3-yl)-8,8-dimethyl-7H-purino[8,9-b][1,3]oxazol-4-yl]amino]ethyl]-2-hydroxyphenyl]benzonitrile, reference compound] |  |  | Amount of platelet production (vs. Control) ([1]; comparative examples: only an aryl hydrocarbon receptor antagonist, no acrylamide compound, A1 0.75 μM, A2 0.1 μM, A3 10 μM, A4 1 μM, A5 to A8 0.1 μM): + (the amount of platelets production increased by not less than 1.5 times and less than 6.5 times)
5 | COc1cccc2c(/C=C/C(=O)NCCc3ccccc3-c3ccccc3)cn(C)c12 [Example 23] | ++ (not less than 6.5 times) |  | fold induction at 10 µM [2]: 1.5 to 6.5
6 | COc1cccc2c(/C=C/C(=O)NCCc3ccccc3-c3ccccc3)cn(C(C)=O)c12 [Example 24, (E)-3-(1-acetyl-7-methoxyindol-3-yl)-N-[2-(2-phenylphenyl)ethyl]prop-2-enamide] | ++ (not less than 6.5 times) | 1.5 to 6.5 | 
7 | COc1cccc2c(/C=C/C(=O)NCCc3ccccc3-c3ccccc3)cn(C(=O)c3ccccc3)c12 [Example 25, (E)-3-(1-benzoyl-7-methoxyindol-3-yl)-N-[2-(2-phenylphenyl)ethyl]prop-2-enamide] | ++ (not less than 6.5 times) | 1.5 to 6.5 | 
8 | COc1cccc2c(/C=C/C(=O)NCCc3ccccc3-c3ccco3)c[nH]c12 [Example 26] | ++ (not less than 6.5 times) | 1.5 to 6.5 | 
9 | COc1cccc2c(/C=C/C(=O)NCCc3ccccc3-c3ccccc3F)c[nH]c12 [Example 27] | ++ (not less than 6.5 times) | 1.5 to 6.5 | 
10 | COc1cccc2c(/C=C/C(=O)NCCc3ccccc3-c3ccc(F)cc3)c[nH]c12 [Example 28] | ++ (not less than 6.5 times) | 1.5 to 6.5 | 
11 | CCOc1ncccc1CCNC(=O)/C=C/c1c[nH]c2c(OC)cccc12 [Example 29, (E)-N-[2-(2-ethoxypyridine-3-yl)ethyl]-3-(7-methoxy-1H-indol-3-yl)prop-2-enamide] | ++ (not less than 6.5 times) | 1.5 to 6.5 | 
12 | COc1cccc2c(/C=C/C(=O)NCCc3sccc3-c3cccs3)c[nH]c12 [Example 30] | ++ (not less than 6.5 times) | 1.5 to 6.5 | 
13 | COc1cccc2c(/C=C/C(=O)NCCc3sccc3-c3ccco3)c[nH]c12 [Example 31] | ++ (not less than 6.5 times) | 1.5 to 6.5 | 
14 | COc1cccc2c(/C=C/C(=O)NCCc3sccc3-c3ccccn3)c[nH]c12 [Example 32] | ++ (not less than 6.5 times) | 1.5 to 6.5 | 
15 | COc1cccc2c(/C=C/C(=O)NCCc3ccccc3-c3cccnn3)c[nH]c12 [Example 33] | ++ (not less than 6.5 times) | 1.5 to 6.5 | 
16 | COc1cccc2c(/C=C/C(=O)NCCc3ccccc3-c3ccncn3)c[nH]c12 [Example 34] | ++ (not less than 6.5 times) | 1.5 to 6.5 | 
17 | COCCOc1ccccc1CCNC(=O)/C=C/c1c[nH]c2c(OC)cccc12 [Example 35] | ++ (not less than 6.5 times) | 1.5 to 6.5 | 
18 | CCOc1ccccc1CCNC(=O)/C=C/c1c[nH]c2c(OC)nccc12 [Example 36] | ++ (not less than 6.5 times) | 1.5 to 6.5 | 
19 | COc1cccc2c(/C=C/C(=O)NCCc3ccccc3-n3cccn3)c[nH]c12 [Example 37] | ++ (not less than 6.5 times) | 1.5 to 6.5 | 

Row | Compound | Amount of platelet production (vs. Control) ([2]; compound 10 μM added at Day 3) | fold induction at 10 µM [2, 4] | further results
20 | CCOc1ccccc1CCNC(=O)/C=C/n1cnc2c(OC)cccc21 [Example 38] | + (the amount of platelets production increased by not less than 1.5 times and less than 6.5 times) | 1.5 to 6.5 | 
21 | COc1cccc2c1ccn2/C=C/C(=O)NCCc1ccccc1-c1ncccn1 [Example 39] | ++ (not less than 6.5 times) | 1.5 to 6.5 | 
22 | COc1cccn2c(/C=C/C(=O)NCCc3ccccc3-c3ncccn3)cnc12 [Example 40] | ++ (not less than 6.5 times) | 1.5 to 6.5 | 
23 | Cc1ccnc2c(/C=C/C(=O)NCCc3ccccc3-c3ncccn3)c[nH]c12 [Example 41] | ++ (not less than 6.5 times) | 1.5 to 6.5 | 
24 | COc1cccc2c(/C=C/C(=O)NCCc3cccc4ccc(C)nc34)c[nH]c12 [Example 42] | ++ (not less than 6.5 times) | 1.5 to 6.5 | 
25 | COC(=O)n1cc(/C=C/C(=O)NCCc2ccccc2-c2ccccc2)c2cccc(OC)c21 [Example 43] | ++ (not less than 6.5 times) | 1.5 to 6.5 | 
26 | COc1cccc2c(/C=C/C(=O)NCCc3occc3-c3ccccc3)c[nH]c12 [Example 44] | ++ (not less than 6.5 times) | 1.5 to 6.5 | 
27 | COc1cccc2c(/C=C/C(=O)NCCc3sccc3-c3ncccn3)c[nH]c12 [Example 45, (E)-3-(7-methoxy-1H-indol-3-yl)-N-[2-(3-pyrimidin-2-ylthiophen-2-yl)ethyl]prop-2-enamide] | ++ (not less than 6.5 times) | 1.5 to 6.5 | 
28 | Cc1cccc2c(/C=C/C(=O)NCCc3ccccc3-c3ncccn3)c[nH]c12 [Example 46] | ++ (not less than 6.5 times) | 1.5 to 6.5 | 
29 | O=C(/C=C/c1c[nH]c2ccccc12)NCCc1ccccc1-c1ncccn1 [Example 47, (E)-3-(1H-indol-3-yl)-N-[2-(2-pyrimidin-2-ylphenyl)ethyl]prop-2-enamide] | ++ (not less than 6.5 times) | 1.5 to 6.5 | 
30 | O=C(/C=C/c1c[nH]c2c(Cl)cccc12)NCCc1ccccc1-c1ncccn1 [Example 48] | ++ (not less than 6.5 times) | 1.5 to 6.5 | 
31 | COc1nccc2c(/C=C/C(=O)NCCc3ccccc3-c3ncccn3)c[nH]c12 [Example 49] | ++ (not less than 6.5 times) | 1.5 to 6.5 | 
32 | COc1cccc2c(/C=C/C(=O)NCCc3ccccc3-c3ncc(F)cn3)c[nH]c12 [Example 51] | ++ (not less than 6.5 times) | 1.5 to 6.5 | 
33 | COc1cccc2c(/C=C/C(=O)NCCc3ccccc3-c3ncc(C)cn3)c[nH]c12 [Example 52] | ++ (not less than 6.5 times) | 1.5 to 6.5 | 
34 | COc1cccc2c(/C=C/C(=O)NCCc3ccccc3-c3ncccn3)cn(C)c12 [Example 53] | ++ (not less than 6.5 times) | 1.5 to 6.5 | 
35 | COCCn1cc(/C=C/C(=O)NCCc2ccccc2-c2ncccn2)c2cccc(OC)c21 [Example 54] | ++ (not less than 6.5 times) | 1.5 to 6.5 | 
36 | COC(=O)n1cc(/C=C/C(=O)NCCc2ccccc2-c2ncc(OC)cn2)c2cccc(OC)c21 [Example 55] | ++ (not less than 6.5 times) | 1.5 to 6.5 | 
37 | COc1cnc(-c2ccccc2CCNC(=O)/C=C/c2c[nH]c3c(OC)cccc23)nc1 [Example 56] | ++ (not less than 6.5 times) | 1.5 to 6.5 | 
